The target of the assay is T1, Human CARM1 (PRMT4) (Homo sapiens, UniProt Q86X55).
T1 construct: Flag-CARM1-His; made in house; host or cells: HEK 293F cells (BacMam baculovirus)
T1 sequence (Q86X55 1-585 isoform Q86X55-1): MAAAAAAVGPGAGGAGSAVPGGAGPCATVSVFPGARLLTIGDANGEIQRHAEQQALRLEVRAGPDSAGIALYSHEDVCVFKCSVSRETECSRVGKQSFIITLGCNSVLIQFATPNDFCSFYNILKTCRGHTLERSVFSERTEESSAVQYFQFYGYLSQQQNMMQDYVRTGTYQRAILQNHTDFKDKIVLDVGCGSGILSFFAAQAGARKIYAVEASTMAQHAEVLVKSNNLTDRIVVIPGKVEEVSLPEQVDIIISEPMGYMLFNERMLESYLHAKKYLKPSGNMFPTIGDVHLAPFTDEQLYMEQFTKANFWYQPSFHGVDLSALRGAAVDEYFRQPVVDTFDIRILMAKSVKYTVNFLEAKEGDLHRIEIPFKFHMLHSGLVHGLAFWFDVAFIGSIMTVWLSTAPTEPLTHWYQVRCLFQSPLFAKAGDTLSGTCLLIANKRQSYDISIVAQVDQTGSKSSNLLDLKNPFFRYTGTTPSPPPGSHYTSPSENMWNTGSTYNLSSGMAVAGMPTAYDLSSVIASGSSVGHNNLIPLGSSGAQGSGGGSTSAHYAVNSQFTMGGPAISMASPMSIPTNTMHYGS
The experiment in a line: CARM1 Biochemical Assay. The source says: General Materials. S-adenosylmethionine (SAM), S-adenosylhomocysteine (SAH), bicine, Tween20, dimethylsulfoxide (DMSO), bovine skin gelatin (BSG), sodium butyrate and Tris(2-carboxyethyl)phosphine hydrochloride solution (TCEP) were purchased from Sigma-Aldrich at the highest level of purity possible. ^3H-SAM was purchase from American Radiolabeled Chemicals with a specific activity of 80 Ci/mmol. 384-well streptavidin Flashplates were purchased from PerkinElmer.
Substrates. Peptide representative of human histone H3 residues 16-30 was synthesized with an N-terminal linker-affinity tag motif and a C-terminal amide cap by 21st Century Biochemicals. The peptide was purified by high-performance liquid chromatography (HPLC) to greater than 95% purity and confirmed by liquid chromatography mass spectrometry (LC-MS). The sequence was Biot-Ahx-[…]-amide and contained a monomethylated arginine at position 26 (SEQ ID NO.: 14).
Molecular Biology: Human CARM1 (PRMT4) (NM_199141.1) transcript clone was amplified from an HEK 293 cDNA library, incorporating a flanking 5′ sequence encoding a FLAG tag ([…]) (SEQ ID NO.:6) fused directly to Ala 2 of CARM1 and 3′ sequence encoding a hexa His sequence ([…]) (SEQ ID NO.: 15) fused directly to Ser 608. The gene sequence encoding isoform1 containing a deletion of amino acids 539-561 was amplified subsequently and subcloned into pFastBacMam (Viva Biotech).
Protein Expression. Recombinant baculovirus were generated according to Bac-to-Bac kit instructions (Life Technologies). […] Infections were carried out at 37° C. for 48 hours, harvested by centrifugation, and stored at −80° C. for purification.
Protein Purification. […] Column was washed with 500 mM NaCl in buffer A and Flag-CARM1-His was eluted with 200 ug/ml FLAG peptide in buffer A. Pooled fractions were dialyzed in 20 mM Tris, 150 mM NaCl, 5% glycerol and 1 mM DTT, pH 7.8. The purity of recovered protein was 94.
General Procedure for CARM1 Enzyme Assays on Peptide Substrates. The assays were all performed in a buffer consisting of 20 mM Bicine (pH=7.6), 1 mM TCEP, 0.005% BSG, and 0.002% Tween 20, prepared on the day of use. Compounds in 100% DMSO (1 ul) were spotted into a polypropylene 384-well V-bottom plates (Greiner) using a Platemate Plus outfitted with a 384-channel head (Thermo Scientific). DMSO (1 ul) was added to Columns 11, 12, 23, 24, rows A-H for the maximum signal control and 1 ul of SAH, a known product and inhibitor of CARM1, was added to columns 11, 12, 23, 24, rows I-P for the minimum signal control. A cocktail (40 ul) containing the CARM1 enzyme was added by Multidrop Combi (Thermo-Fisher). The compounds were allowed to incubate with CARM1 for 30 min at room temperature, then a cocktail (10 ul) containing ^3H-SAM and peptide was added to initiate the reaction (final volume=51 ul). The final concentrations of the components were as follows: CARM1 was 0.25 nM, ^3H-SAM was 30 nM, peptide was 250 nM, SAH in the minimum signal control wells was 1 mM, and the DMSO concentration was 2%. The assays were stopped by the addition of non-radiolabeled SAM (10 ul) to a final concentration of 300 uM, which dilutes the ^3H-SAM to a level where its incorporation into the peptide substrate is no longer detectable. 50 ul of the reaction in the 384-well polypropylene plate was then transferred to a 384-well Flashplate and the biotinylated peptides were allowed to bind to the streptavidin surface for at least 1 hour before being washed once with 0.1% Tween20 in a Biotek EL×405 plate washer. The plates were then read in a PerkinElmer TopCount plate reader to measure the quantity of ^3H-labeled peptide bound to the Flashplate surface, measured as disintegrations per minute (dpm) or alternatively, referred to as counts per minute (cpm).
Where dpm=disintegrations per minute, cmpd=signal in assay well, and min and max are the respective minimum and maximum signal controls. […]

Setting [1] is: PRMT4 IC50, biochemical evaluation, CARM1 (PRMT4), peptide substrate.
The mark [2] stands for this setting: PRMT4 biochemical evaluation (numerical), single experiment or average of multiple experiments.

The structures appear in SMILES notation. Some results are limits rather than exact numbers.

In the case of `CNCCN(C)Cc1n[nH]c2ccc(Oc3ccccc3OC(C)C)cc12` [Compound 56], the IC50 runs as follows: under setting [1], 101 to 1000 nM; under setting [2], more than 10000 nM.
The matching figures for `CNCCN(C)Cc1n[nH]c2ccc(Oc3ccc(Cl)cc3)cc12` [Compound 57]: 101 to 1000 nM and 333 nM.
The matching figures for `CNCCN(C)Cc1n[nH]c2ccc(OC3CCN(C(C)=O)CC3)cc12` [Compound 58, 1-(4-((3-((methyl(2-(methylamino)ethyl)amino)methyl)-1H-indazol-5-yl)oxy)piperidin-1-yl)ethan-1-one]: 1010 to 3000 nM and 248 nM.
Take `CNCCN(C)Cc1n[nH]c2ccc(Oc3ccc(OC)cc3)cc12` [Compound 59]: the IC50 under setting [1] was less than 100 nM and the IC50 under setting [2] is 313 nM.
The matching figures for `CNCCN(C)Cc1n[nH]c2ccc(Oc3ccccc3C)cc12` [Compound 60]: 101 to 1000 nM and 1770 nM.
Take `CNCCN(C)Cc1n[nH]c2ccc(Oc3ccc(OC(C)C)cc3)cc12` [Compound 61]: the concentration for half-maximal inhibition (IC50) runs as follows: under setting [1], 3010 to 10000 nM; under setting [2], 87.3 nM.
On to `CNCCN(C)Cc1nn(C(C)C)c2ccc(OCc3ccc(C#N)cc3)cc12` [Compound 62], for which the IC50 reads like this: under setting [1], 1010 to 3000 nM; under setting [2], 364 nM.
For `CCOc1ccc2[nH]nc(CN(C)CCNC)c2c1` [Compound 63], the IC50 under setting [1] lay within 3010 to 10000 nM and the IC50 under setting [2] is 4160 nM.
Turning to `CNCCN(C)Cc1n[nH]c2ccc(OC(C)C)cc12` [Compound 64], the IC50 under setting [1] was in the range of 1010 to 3000 nM and the IC50 under setting [2] came to 1960 nM.
The matching figures for `CCCOc1ccc2[nH]nc(CN(C)CCNC)c2c1` [Compound 65]: 101 to 1000 nM and 4940 nM.
`CNCCN(C)Cc1n[nH]c2ccc(OCc3cccc(C(N)=O)c3)cc12` [Compound 66]: the half-inhibitory concentration (IC50) was 1010 to 3000 nM under setting [1] and 1910 nM under setting [2].
Regarding `CNCCN(C)Cc1n[nH]c2ccc(Oc3cccc(OC(C)C)c3)cc12` [Compound 67], the half-inhibitory concentration (IC50) was 3010 to 10000 nM under setting [1] and 683 nM under setting [2].
As to `CNCCN(C)Cc1n[nH]c2ccc(OCc3ccc(C(F)(F)F)cc3)cc12` [Compound 68], the IC50 by setting is: under setting [1], 3010 to 10000 nM; under setting [2], 1700 nM.
Taken in the same sequence, the figures for `CNCCN(C)Cc1n[nH]c2ccc(OCc3ccc(C(N)=O)cc3)cc12` [Compound 69] were 3010 to 10000 nM and 4160 nM.
Taken in the same sequence, the figures for `CNCCN(C)Cc1n[nH]c2ccc(OCc3cccc(NC(C)=O)c3)cc12` [Compound 70] were 101 to 1000 nM and 3700 nM.
Take `CNCCN(C)Cc1n[nH]c2ccc(OCc3ccc(C(C)(C)C)cc3)cc12` [Compound 71]: the IC50 by setting is: under setting [1], 3010 to 10000 nM; under setting [2], 3790 nM.
Taken in the same sequence, the figures for `CNCCN(C)Cc1n[nH]c2ccc(OCc3cccc(C(F)(F)F)c3)cc12` [Compound 72] were 101 to 1000 nM and 892 nM.
The matching figures for `CNCCN(C)Cc1n[nH]c2ccc(OCc3cccc(C(C)=O)c3)cc12` [Compound 73]: 101 to 1000 nM and 4590 nM.
Taken in the same sequence, the figures for `CNCCN(C)Cc1n[nH]c2ccc(OCc3cccc(C(C)(C)C)c3)cc12` [Compound 74] were 101 to 1000 nM and 305 nM.

By IC50 is commonly meant the concentration at which inhibition is half-maximal. Higher therefore signals lower potency.

These data come from patent publication US9765035B2 (priority 2013, dated 2017).
